What was measured:
Format in all cases: in vivo
Ctenocephalides felis = Ctenocephalides felis oral test; details: application rate 100 ppm in citrated cattle blood; unfed adult cat fleas; after 2 days
Description: Ctenocephalides felis—Oral Test Solvent: Dimethyl Sulfoxide To produce a suitable active compound formulation, 10 mg of active compound are mixed with 0.5 ml of dimethyl sulfoxide. Dilution with citrated cattle blood gives the desired concentration. About 20 unfed adult cat fleas (Ctenocephalides felis) are placed into a chamber which is closed at the top and bottom with gauze. A metal cylinder whose bottom end is closed with parafilm is placed onto the chamber. The cylinder contains the blood/active compound formulation, which can be imbibed by the fleas through the parafilm membrane. After 2 days, the kill in % is determined. 100% means that all of the fleas have been killed; 0% means that none of the fleas have been killed.

Musca domestica = Musca domestica test; details: application rate 100 ppm; adult houseflies, sponge with sugar solution; after 2 days
Description: Musca domestica Test Solvent: Dimethyl Sulfoxide To produce a suitable active compound formulation, 10 mg of active compound are mixed with 0.5 ml of dimethyl sulfoxide, and the concentrate is diluted with water to the desired concentration. Vessels containing a sponge treated with sugar solution and the desired concentration of active compound formulation are populated with 10 adult houseflies (Musca domestica). After 2 days, the kill in % is determined. 100% means that all of the flies have been killed; 0% means that none of the flies have been killed.

Myzus persicae [1] = assay: Myzus persicae oral test; details: 120 h, mixed population of green peach aphids, after 5 days, read-out: efficacy; for pest or weed control at 4 ppm: application rate 4 ppm
Description: Myzus persicae—Oral Test [table] To produce a suitable active compound formulation, 1 part by weight of active compound is dissolved with the stated parts by weight of solvent and made up to the desired concentration with water. 50 μl of the active compound formulation are transferred into microtitre plates and made up to a final volume of 200 μl with 150 μl of IPL41 insect medium (33%+15% sugar). Subsequently, the plates are sealed with parafilm, which a mixed population of green peach aphids (Myzus persicae) within a second microtitre plate is able to puncture and imbibe the solution. After 5 days, the efficacy in % is determined. 100% means that all the aphids have been killed; 0% means that no aphids have been killed.

Myzus persicae [2] = assay: Myzus persicae spray test; details: foliar, 120 h, application rate 100 g/ha, Chinese cabbage leaf discs infested by all stages, after 5 days, read-out: efficacy
Description: Myzus persicae—Spray Test [table] To produce a suitable active compound formulation, 1 part by weight of active compound is dissolved with the specified parts by weight of solvent and made up to the desired concentration with water containing an emulsifier concentration of 1000 ppm. To produce further test concentrations, the formulation is diluted with emulsifier-containing water. Discs of Chinese cabbage leaves (Brassica pekinensis) infested by all stages of the green peach aphid (Myzus persicae) are sprayed with an active compound formulation of the desired concentration. After 5 days, the efficacy in % is determined. 100% means that all the aphids have been killed; 0% means that no aphids have been killed.

Phaedon cochleariae = Phaedon cochleariae spray test; details: foliar, 168 h, application rate 100 g/ha, larvae on Chinese cabbage leaf discs, after 7 days, read-out: efficacy
Description: Phaedon cochleariae—Spray Test
(§1) To produce a suitable active compound formulation, 1 part by weight of active compound is dissolved with the specified parts by weight of solvent and made up to the desired concentration with water containing an emulsifier concentration of 1000 ppm. To produce further test concentrations, the formulation is diluted with emulsifier-containing water.
Discs of Chinese cabbage leaves (Brassica pekinensis) are sprayed with an active compound formulation of the desired concentration and, after drying, populated with larvae of the mustard beetle (Phaedon cochleariae).
After 7 days, the efficacy in % is determined. 100% means that all the beetle larvae have been killed; 0% means that no beetle larvae have been killed.

Spodoptera frugiperda = Spodoptera frugiperda spray test; details: foliar, 168 h, application rate 100 g/ha, caterpillars on maize leaf discs, after 7 days, read-out: efficacy
Description: Spodoptera frugiperda—Spray Test [table] To produce a suitable active compound formulation, 1 part by weight of active compound is dissolved with the specified parts by weight of solvent and made up to the desired concentration with water containing an emulsifier concentration of 1000 ppm. To produce further test concentrations, the formulation is diluted with emulsifier-containing water. Leaf discs of maize (Zea mays) are sprayed with an active compound formulation of the desired concentration and, after drying, populated with caterpillars of the fall armyworm (Spodoptera frugiperda). After 7 days, the efficacy in % is determined. 100% means that all the caterpillars have been killed; 0% means that no caterpillar has been killed.

Lucilia cuprina = Lucilia cuprina test; details: application rate 100 ppm; L1 larvae on minced horsemeat; after 2 days
Description: Lucilia cuprina Test Solvent: Dimethyl Sulfoxide To produce a suitable active compound formulation, 10 mg of active compound are mixed with 0.5 ml of dimethyl sulfoxide, and the concentrate is diluted with water to the desired concentration. About 20 L1 larvae of the Australian sheep blowfly (Lucilia cuprina) are transferred into a test vessel containing minced horsemeat and the active compound preparation of the desired concentration. After 2 days, the kill in % is determined. 100% means that all the larvae have been killed; 0% means that no larvae have been killed.

Tetranychus urticae = Tetranychus urticae spray test, OP-resistant; details: application rate 100 g/ha, bean leaf discs infested with all stages, after 6 days
Description: Tetranychus urticae—Spray Test, OP-Resistant
as §1
Discs of bean leaves (Phaseolus vulgaris) infested with all stages of the greenhouse red spider mite (Tetranychus urticae) are sprayed with an active compound formulation of the desired concentration.
After 6 days, the efficacy in % is determined. 100% means that all the spider mites have been killed; 0% means that no spider mites have been killed.

| SMILES | pest or weed control at 4 ppm (Myzus persicae [1]) [%] | pest or weed control at 100 g/ha (Myzus persicae [2]) [%] | pest or weed control at 100 g/ha (Phaedon cochleariae) [%] | pest or weed control at 100 g/ha (Spodoptera frugiperda) [%] | further results |
| --- | --- | --- | --- | --- | --- |
| CCS(=O)(=O)c1c(-c2nc3cc(C(F)(F)F)nnc3n2C)sc2cc(C(F)(F)F)sc12 [I-18] | 100 | 100 | 100 | 100 | efficacy (kill in %) (Ctenocephalides felis): 100%; efficacy (kill in %) (Musca domestica): 80% |
| CCS(=O)(=O)c1c(-c2nc3cc(C(F)(F)F)ncc3n2C)sc2c(-n3cc(Cl)cn3)csc12 [I-20, 2-[6-(4-Chloro-1H-pyrazol-1-yl)-3-(ethylsulfonyl)thieno[3,2-b]thiophen-2-yl]-3-methyl-6-(trifluoromethyl)-3H-imidazo[4,5-c]pyridine] | 100 | – | 100 | 100 | – |
| CCS(=O)(=O)c1c(-c2nc3cc(C(F)(F)F)ncc3n2C)sc2ccoc12 [I-2, 2-[6-(Ethylsulfonyl)thieno[3,2-b]furan-5-yl]-3-methyl-6-(trifluoromethyl)-3H-imidazo[4,5-c]pyridine] | 100 | – | – | – | efficacy (kill in %) (Lucilia cuprina): 100% |
| CCS(=O)(=O)c1c(-c2nc3cc(C(F)(F)F)ncc3n2C)sc2c(-c3cnn(C)c3)csc12 [I-11, 2-[3-(Ethylsulfonyl)-6-(1-methyl-1H-pyrazol-4-yl)thieno[3,2-b]thiophen-2-yl]-3-methyl-6-(trifluoromethyl)-3H-imidazo[4,5-c]pyridine] | 90 | 90 | 83 | – | – |
| CCS(=O)(=O)c1c(-c2nc3cc(C(F)(F)F)ncc3n2C)sc2c1CCC2 [I-4, 2-[3-(Ethylsulfonyl)-5,6-dihydro-4H-cyclopenta[b]thiophen-2-yl]-3-methyl-6-(trifluoromethyl)-3H-imidazo[4,5-c]pyridine] | 100 | – | – | – | efficacy (kill in %) (Lucilia cuprina): 90% |
| CCS(=O)(=O)c1c(-c2nc3cc(C(F)(F)F)cnc3n2C)sc2nc(C(F)(F)F)sc12 [I-13] | 90 | – | 100 | 100 | – |
| CCS(=O)(=O)c1c(-c2nc3cc(C(F)(F)F)ncc3n2C)sc2nc(C(F)(F)F)oc12 [I-12] | 100 | 100 | 100 | 100 | efficacy (kill in %) (Ctenocephalides felis): 80%; efficacy (kill in %) (Musca domestica): 85%; efficacy (Tetranychus urticae): 90% |
| CCS(=O)(=O)c1c(-c2nc3cc(C(F)(F)F)ncc3n2C)sc2c(C#N)csc12 [I-5, 6-(Ethylsulfonyl)-5-[3-methyl-6-(trifluoromethyl)-3H-imidazo[4,5-c]pyridin-2-yl]thieno[3,2-b]thiophene-3-carbonitrile] | 100 | – | – | – | – |
| CCS(=O)(=O)c1c(-c2nc3cc(C(F)(F)F)ncc3n2C)sc2cc(C)sc12 [I-22] | 100 | 90 | – | – | – |
| CCS(=O)(=O)c1c(-c2nc3cc(C(F)(F)F)nnc3n2C)sc2nc(C(F)(F)F)sc12 [I-9] | 100 | – | 100 | 100 | – |
| CCS(=O)(=O)c1c(-c2nc3cc(C(F)(F)F)ncc3n2C)sc2c1C(=O)CC2 [I-30] | – | – | – | – | efficacy (Tetranychus urticae): 90% |
| CCS(=O)(=O)c1c(-c2nc3cc(C(F)(F)F)ncc3n2C)sc2cc(C(F)(F)F)sc12 [I-7] | – | 100 | – | – | efficacy (kill in %) (Ctenocephalides felis): 95%; efficacy (kill in %) (Musca domestica): 80%; efficacy (Tetranychus urticae): 90% |
| CCS(=O)(=O)c1c(-c2nc3cc(C(F)(F)F)ncc3n2C)sc2c(C(N)=O)csc12 [I-15, 6-(Ethylsulfonyl)-5-[3-methyl-6-(trifluoromethyl)-3H-imidazo[4,5-c]pyridin-2-yl]thieno[3,2-b]thiophene-3-carboxamide] | 100 | 90 | – | – | efficacy (Tetranychus urticae): 90% |
| CCS(=O)(=O)c1c(-c2nc3cc(C(F)(F)F)ncc3n2C)sc2c(-c3ccccc3)csc12 [I-16, 2-[3-(Ethylsulfonyl)-6-phenylthieno[3,2-b]thiophen-2-yl]-3-methyl-6-(trifluoromethyl)-3H-imidazo[4,5-c]pyridine] | 100 | 90 | – | 100 | – |
| CCS(=O)(=O)c1c(-c2nc3cc(C(F)(F)F)ncc3n2C)sc2c(NC(=O)C3CC3)csc12 [I-19] | – | – | – | – | pest or weed control at 0.8 ppm (Myzus persicae [1]; application rate 0.8 ppm): 100% |
| CCS(=O)(=O)c1c(-c2nc3cc(C(F)(F)F)ncc3n2C)sc2cc(C(F)(F)F)sc12 [I-3, 2-[3-(Ethylsulfonyl)-5-(trifluoromethyl)thieno[3,2-b]thiophen-2-yl]-3-methyl-6-(trifluoromethyl)-3H-imidazo[4,5-c]pyridine] | 100 | – | 100 | 100 | – |
| CCS(=O)(=O)c1c(-c2nc3cc(C(F)(F)F)ncc3n2C)sc2c(C(=O)NC)csc12 [I-24] | 100 | 90 | – | – | – |
| CCS(=O)(=O)c1c(-c2nc3cc(C(F)(F)F)ncc3n2C)sc2c(Br)csc12 [I-8, 2-[6-Bromo-3-(ethylsulfonyl)thieno[3,2-b]thiophen-2-yl]-3-methyl-6-(trifluoromethyl)-3H-imidazo[4,5-c]pyridine] | 100 | – | – | 100 | – |
| CCS(=O)(=O)c1c(-c2nc3cc(C(F)(F)C(F)(F)F)ncc3n2C)sc2nc(C(F)(F)F)sc12 [I-14] | 90 | 90 | 100 | 100 | – |
| CCS(=O)(=O)c1c(-c2nc3cc(C(F)(F)F)ncc3n2C)sc2ccsc12 [I-1] | 100 | – | – | – | efficacy (kill in %) (Lucilia cuprina): 100% |
| CCS(=O)(=O)c1c(-c2nc3cc(C(F)(F)F)ncc3n2C)sc2cc(Cl)sc12 [I-25] | 100 | 90 | – | 100 | – |
| CCS(=O)(=O)c1c(-c2nc3cc(C(F)(F)F)ncc3n2C)sc2c(NC(C)=O)csc12 [I-6, N-{6-(Ethylsulfonyl)-5-[3-methyl-6-(trifluoromethyl)-3H-imidazo[4,5-c]pyridin-2-yl]thieno[3,2-b]thiophen-3-yl}acetamide] | – | 90 | – | – | – |
| CCS(=O)(=O)c1c(-c2nc3cc(C(F)(F)F)ncc3n2C)sc2c(-n3cnc(C(F)(F)F)c3)csc12 [I-21] | 100 | 90 | 100 | 100 | – |
| CCS(=O)(=O)c1c(-c2nc3cc(C(F)(F)F)ncc3n2C)sc2c(C3CC3)csc12 [I-23] | 100 | – | – | 100 | – |

From patent US20200128830A1, “FUSED BICYCLIC HETEROCYCLE DERIVATIVES AS PESTICIDES” (Bayer Aktiengesellschaft, priority 2017, published 2020)
